Assay results from patent publication US10251395B2, “Substituted furano-/thienocycloalkylamino-2-pyrimidine derivatives and use thereof for controlling undesired plant growth” (Bayer CropScience Aktiengesellschaft, priority 2015, dated 2019).

Columns and labels:
Type in all cases: in vivo
[1] = system: Matricaria inodora; experiment: Pre-emergence herbicidal effect; conditions: scored visually after 3 weeks
Description: (§1) Seeds of monocotyledonous and dicotyledonous weed plants and crop plants are laid out in wood-fiber pots in sandy loam and covered with soil. The compounds of the invention, formulated in the form of wettable powders (WP) or as emulsion concentrates (EC), are then applied to the surface of the covering soil as aqueous suspension or emulsion at a water application rate equating to 600 to 800 L/ha with addition of 0.2% wetting agent.
(§2) After the treatment, the pots are placed in a greenhouse and kept under good growth conditions for the trial plants. The damage to the test plants is scored visually after a test period of 3 weeks by comparison with untreated controls (herbicidal activity in percent (%): 100% activity=the plants have died, 0% activity=like control plants).
(§3) • ABUTH: Abutilon theophrasti ALOMY: Alopecurus myosuroides • AMARE: Amaranthus retroflexus AVEFA: Avena fatua • CYPES: Cyperus esculentus ECHCG: Echinochloa crus-galli • LOLMU: Lolium multiflorum MATIN: Matricaria inodora • PHBPU: Ipomoea purpurea POLCO: Polygonum convolvulus • SETVI: Setaria viridis STEME: Stellaria media • VERPE: Veronica persica VIOTR: Viola tricolor

[2] = system: Stellaria media; experiment: Pre-emergence herbicidal effect; conditions: scored visually after 3 weeks
Description: as §1, §2, §3

[3] = system: Viola tricolor; experiment: Pre-emergence herbicidal effect; conditions: scored visually after 3 weeks
Description: as §1, §2, §3

[4] = system: Amaranthus retroflexus; experiment: Pre-emergence herbicidal effect; conditions: scored visually after 3 weeks
Description: as §1, §2, §3

[5] = system: Veronica persica; experiment: Pre-emergence herbicidal effect; conditions: scored visually after 3 weeks
Description: as §1, §2, §3

[6] = system: Setaria viridis; experiment: Pre-emergence herbicidal effect; conditions: Dosage 320 g/ha, scored visually after 3 weeks
Description: as §1, §2, §3

[7] = system: Veronica persica; experiment: Post-emergence herbicidal effect
Description: (§4) • ABUTH: Abutilon theophrasti ALOMY: Alopecurus myosuroides • AMARE: Amaranthus retroflexus AVEFA: Avena fatua • CYPES: Cyperus esculentus ECHCG: Echinochloa crus-galli • LOLMU: Lolium multiflorum MATIN: Matricaria inodora • PHBPU: Ipomoea purpurea POLCO: Polygonum convolvulus • SETVI: Setaria viridis STEME: Stellaria media • VERPE: Veronica persica VIOTR: Viola tricolor Seeds of monocotyledonous and dicotyledonous weed and crop plants are laid out in sandy loam in wood-fiber pots, covered with soil and cultivated in a greenhouse under good growth conditions. 2 to 3 weeks after sowing, the test plants are treated at the one-leaf stage. The compounds of the invention, formulated in the form of wettable powders (WP) or as emulsion concentrates (EC), are then sprayed onto the green parts of the plants as aqueous suspension or emulsion at a water application rate equating to 600 to 800 L/ha with addition of 0.2% wetting agent. After the test plants have been left to stand in the greenhouse under optimal growth conditions for about 3 weeks, the action of the preparations is assessed visually in comparison to untreated controls (herbicidal action in percent (%): 100% activity=the plants have died, 0% activity=like control plants).

[8] = system: Viola tricolor; experiment: Post-emergence herbicidal effect
Description: as §4

[9] = system: Amaranthus retroflexus; experiment: Post-emergence herbicidal effect; conditions: assessed visually after about 3 weeks vs untreated controls
Description: as §4

[10] = system: Polygonum convolvulus; experiment: Pre-emergence herbicidal effect; conditions: Dosage 320 g/ha, scored visually after 3 weeks
Description: as §1, §2, §3

[11] = system: Stellaria media; experiment: Post-emergence herbicidal effect; conditions: assessed visually after about 3 weeks vs untreated controls
Description: as §4

[12] = system: Alopecurus myosuroides; experiment: Pre-emergence herbicidal effect; conditions: Dosage 320 g/ha, scored visually after 3 weeks
Description: as §1, §2, §3

[13] = dosage not printed (first line of Ex. 30)
[14] = 320 g/ha, assessed visually after about 3 weeks vs untreated controls
[15] = 80 g/ha, assessed visually after about 3 weeks vs untreated controls

Row | Compound | MATIN pre-emergence efficacy (herbicidal activity) ([1]; Dosage 320 g/ha) | STEME pre-emergence efficacy (herbicidal activity) ([2]; Dosage 320 g/ha) | VIOTR pre-emergence efficacy (herbicidal activity) ([3]; Dosage 320 g/ha) | AMARE pre-emergence efficacy (herbicidal activity) ([4]; Dosage 320 g/ha) | VERPE pre-emergence efficacy (herbicidal activity) ([5]; Dosage 320 g/ha) | VERPE pre-emergence efficacy (herbicidal activity) ([5]; Dosage 80 g/ha) | POLCO pre-emergence efficacy (herbicidal activity) [10] | also measured
1 | Cc1sc(C)c2c1CCCC2Nc1ncc(C(F)(F)F)c(N)n1 (racemic) [compound 2] | 80% | 100% | 100% | – | – | – | – | –
2 | COc1nc(NC2CCCc3sc(C)cc32)ncc1C(F)(F)F (racemic) [compound 10] | – | 100% | – | 80% | 100% | – | – | –
3 | N=S(=O)(c1ccccc1)c1cnc(NC2CCCc3sccc32)nc1N (racemic) [compound 27] | 100% | 100% | 100% | 100% | 100% | – | – | MATIN pre-emergence efficacy (herbicidal activity) ([1]; Dosage 80 g/ha): 90%
4 | Cc1cc2c(s1)CCCC2Nc1ncc(C(=O)C(F)(F)Cl)c(N)n1 (racemic) [compound 30] | 100% | 100% | 100% | 100% | 100% | 90% | – | AMARE pre-emergence efficacy (herbicidal activity) ([4]; Dosage 80 g/ha): 90%; MATIN pre-emergence efficacy (herbicidal activity) ([1]; Dosage 80 g/ha): 100%; SETVI pre-emergence efficacy (herbicidal activity) [6]: 90%; STEME pre-emergence efficacy (herbicidal activity) ([2]; Dosage 80 g/ha): 90%; VIOTR pre-emergence efficacy (herbicidal activity) ([3]; Dosage 80 g/ha): 100%; post-emergence efficacy VERPE [7, 13]: 80%; post-emergence efficacy VIOTR [8, 13]: 90%; post-emergence efficacy VIOTR ([8]; dosage not printed (second line of Ex. 30)): 80%
5 | Cc1cc2c(s1)CCC2Nc1ncc(S(=O)(=O)NCc2ccc(F)cc2)c(N)n1 (racemic) [compound 38] | 100% | – | – | 90% | 90% | – | – | post-emergence efficacy AMARE ([9]; 320 g/ha): 80%; post-emergence efficacy VERPE [7, 14]: 90%
6 | C/C(=N/O)c1cnc(NC2CCCc3sc(Cl)cc32)nc1C (racemic) [compound 259] | – | 100% | 80% | – | 100% | – | – | SETVI pre-emergence efficacy (herbicidal activity) [6]: 100%
7 | Cc1cc2c(s1)CCCC2Nc1ncc(-c2cccc(F)c2)c(N)n1 (racemic) [compound 265] | 100% | 100% | – | – | 100% | 100% | 60% | post-emergence efficacy AMARE ([9]; 80 g/ha): 80%; post-emergence efficacy AMARE ([9]; 320 g/ha): 80%; post-emergence efficacy STEME ([11]; 80 g/ha): 60%; post-emergence efficacy STEME ([11]; 320 g/ha): 60%; post-emergence efficacy VERPE [7, 15]: 90%; post-emergence efficacy VERPE [7, 14]: 90%; post-emergence efficacy VIOTR [8, 15]: 80%; post-emergence efficacy VIOTR [8, 14]: 80%
8 | Cc1cc2c(s1)CCCC2Nc1ncc(-c2cccc(Cl)c2)c(N)n1 (racemic) [compound 297] | 100% | 100% | 90% | – | 100% | 100% | – | MATIN pre-emergence efficacy (herbicidal activity) ([1]; Dosage 80 g/ha): 90%; STEME pre-emergence efficacy (herbicidal activity) ([2]; Dosage 80 g/ha): 80%; VIOTR pre-emergence efficacy (herbicidal activity) ([3]; Dosage 80 g/ha): 70%
9 | Cc1cc2c(s1)CCCC2Nc1nc(N)c(-c2cncc(F)c2)c(C(F)F)n1 (racemic) [compound 299] | 90% | – | 100% | 100% | – | – | – | ALOMY pre-emergence efficacy (herbicidal activity) [12]: 100%; SETVI pre-emergence efficacy (herbicidal activity) [6]: 90%; post-emergence efficacy VIOTR [8, 14]: 90%
10 | Cc1cccc(-c2c(N)nc(NC3CCCc4sc(C)cc43)nc2C(F)F)c1 (racemic) [compound 304] | – | 100% | – | – | 100% | 100% | 60% | –
11 | CON=C(C)c1cnc(NC2CCCc3sccc32)nc1N (racemic) [compound 310] | – | 90% | 100% | – | – | – | – | –
12 | Cc1cc2c(s1)CCCC2Nc1nc(N)c(-c2cncc(F)c2)c(C(C)F)n1 (racemic) [compound 316] | 80% | 100% | 100% | 100% | 100% | – | 70% | post-emergence efficacy VERPE [7, 14]: 100%; post-emergence efficacy VIOTR [8, 14]: 80%
13 | Cc1cc2c(s1)CCCC2Nc1nc(N)c(S(C)(=O)=O)c(C(C)F)n1 (racemic) [compound 318] | 90% | 100% | 100% | 100% | 100% | – | 100% | SETVI pre-emergence efficacy (herbicidal activity) [6]: 100%
14 | CC(=NOC(C)C)c1cnc(NC2CCCc3sc(C)cc32)nc1N (racemic) [compound 342] | 100% | 100% | – | – | 100% | 100% | – | ALOMY pre-emergence efficacy (herbicidal activity) [12]: 70%; STEME pre-emergence efficacy (herbicidal activity) ([2]; Dosage 80 g/ha): 100%
15 | CC(=O)c1cnc(NC2CCCc3sc(Cl)cc32)nc1C (stereo not shown) [compound 303] | 90% | 100% | 90% | 100% | 100% | 100% | 60% | AMARE pre-emergence efficacy (herbicidal activity) ([4]; Dosage 80 g/ha): 100%; MATIN pre-emergence efficacy (herbicidal activity) ([1]; Dosage 80 g/ha): 80%; STEME pre-emergence efficacy (herbicidal activity) ([2]; Dosage 80 g/ha): 100%; VIOTR pre-emergence efficacy (herbicidal activity) ([3]; Dosage 80 g/ha): 70%
